Measurements reported in US20050203059A1, “Methods and compositions for treatment of ischemia” (priority 2002, published 2005).

Tests used:
GSK3 = assay: Cell-based glycogen synthase assay for GSK3 inhibitory activity (CHO-HIRC cells); conditions: read-out: EC50 (glycogen synthase activity stimulated to 50% of the maximal level), 20 minutes incubation
Description: Likewise, the ability of GSK3 inhibitor compounds to potentiate insulin signaling by activating glycogen synthase can be readily ascertained using a cell-based glycogen synthase activity assay. This assay employs cells that respond to insulin stimulation by increasing glycogen synthase activity, such as the CHO-HIRC cell line, which overexpresses wild-type insulin receptor (˜100,000 binding sites/cell). […] The assay can be carried out by incubating serum-starved CHO-HIRC cells in the presence of various concentrations of compounds of the present invention in the medium, followed by cell lysis at the end of the incubation period. […] The concentration of candidate GSK3 inhibitor that increased glycogen synthase activity to half of its maximal level (i.e., the EC50) can be calculated by fitting a four parameter sigmoidal curve using routine curve fitting methods that are well known to those having ordinary skill in the art.
CHO-HIRC cells are maintained in 10 cm tissue culture plates in Ham's F12 medium/10% dialyzed fetal bovine serum. Cells from a confluent 10 cm plate are harvested and divided into the 6 wells of a 6-well tissue culture plate to a final volume of 2 ml of medium. The cells are left to grow at 37° C. for 24 hours. The cells are then washed three times in Ham's F12 medium containing no fetal bovine serum, and finally the cells are left for a further 24 hours at 37° C. in 2 ml of the serum-free medium.
At the end of this time, 20 μl of compound dissolved in DMSO is added to each well and incubated at 37° C. After 20 minutes the medium is removed and the cells are washed once in PBS at room temperature and then rapidly frozen in the plates in liquid nitrogen. […] Cells are scraped from the plates and frozen in Eppendorf tubes on dry ice. Lysates are then thawed and refrozen on dry ice.
After rethawing, lysates are spun at 14,000 g for 15 minutes. The supernatants are then removed and stored on ice. […] Reactions are incubated at 30° C. for 30 minutes and then spotted onto a 2 cm square 31ET chromatograph paper (Whatman).
Filters are added to 5 ml of liquid scintillant and counted in a liquid scintillation counter. The percentage of the total glycogen synthase that is active in any lysate is expressed as 100× (cpm minus glucose-6-phosphate)/(cpm plus glucose-6-phosphate). Such values are determined in duplicate for 5 different concentrations of compound and for DMSO alone, and the values are then plotted against the logarithm of the concentration. The concentration of compound which stimulates glycogen synthase activity to 50% of the maximal level is determined by fitting a sigmoidal curve to the plotted data. The maximal level is defined as that level to which glycogen synthase activity tends asymtotically as the concentration of test compound increases substantially beyond the EC50.

rat hippocampi cells = assay: GSK3 inhibitor protection of rat hippocampi cells from glutamate induced damage (Trypan Blue count); assay type: cell-based; design: Cells Surviving (%) Without Glutamate (control): concentration or dose not given beside the values; conditions: rat hippocampal neurons, average of 1 to 4 replications; for Cells Surviving (%) With Glutamate: 200 μM glutamic acid for 5 minutes, counted 20 to 24 hours later; for Cells Surviving (%) Without Glutamate (control): not exposed to glutamic acid
Description: Hippocampi were dissected from embryonic day 18-19 rats. The tissue was collected in Hibernate™ media (Gibco BRL) and minced into 1 mm pieces. The tissue was dissociated using the Papain Dissociation System (Worthington Biochemical Corporation). Following isolation the cells were suspended in serum-free media composed of Neurobasal™ (Gibco BRL), 2% B27 supplement (Gibco BRL), L-glutamine and antibiotics. Cells were plated in 12 well plates tissue culture dishes coated with poly-L-lysine at a concentration of 7.5×10^4 cells per well. Following 10-14 days at 37° C. in 5% CO2, the GSK3 inhibitor compounds set forth below were added. Four to eight hours following compound addition, the conditioned media was removed from the cells and the cultures were stored at 37° C. […] The cultures were then either exposed for 5-minutes at room temperature to 200 μM glutamic acid in the same HBSS, or not exposed to glutamic acid as a control. Following exposure, the cultures were rinsed three times with the buffer and then returned to their original conditioned media containing the GSK3 inhibitor compounds. Twenty to 24 hours following glutamic acid exposure, the cultures were rinsed in HBSS and exposed for 10 minutes to Trypan Blue. This dye is taken up by dead cells. The cultures were rinsed then fixed for 30 minutes in 4% paraformaldehyde. The number of live and dead (blue) large neurons are counted (at least 200 cells from each well) by phase contrast microscopy and photographed, and the percentage of surviving cells was determined. […] The results are shown in the following Table 2 as the average of 1 to 4 replications: […]

[1] = Blood brain barrier penetration / plasma drug levels after intravenous dosing in CD rats; assay type: in vivo, rat; conditions: 10 mg/kg intravenously; for Brain (at end of study) drug level: brains isolated at 150 minutes post administration; for AUC / Cmax / Tmax / half-life / Vd / concentration at 0 min / concentration at 7 min / concentration at 20 min / concentration at 40 min / concentration at 70 min / concentration at 100 min / concentration at 150 min: rat, plasma, iv; for Vd: read-out: Vss
Description: GSK3 inhibitor blood brain barrier penetration may generally be measured by administering a GSK3 inhibitor compound formulated in 15% captisol/20 mM sodium citrate to a final dose of 10 mg/kg intravenously through a jugular catheter into 250 g CD rats. At 150 minutes post administration brains from the rats were isolated and fast frozen. GSK3 inhibitor plasma levels in the isolated material were established using standard techniques.

| Compound | EC50 (GSK3) [µM] | Cells Surviving (%) With Glutamate (rat hippocampi cells) [%] | Cells Surviving (%) Without Glutamate (control) (rat hippocampi cells) [%] | also measured |
| --- | --- | --- | --- | --- |
| Nc1nc(NCCNc2ncc(-n3ccccc3=O)c(-c3ccc(Cl)cc3Cl)n2)ccc1[N+](=O)[O-] [R] | 0.014 | 61 | 92 |  |
| FC(F)(F)c1ccc(NCCNc2ncc(-c3ncc[nH]3)c(-c3ccc(Cl)cc3Cl)n2)nc1 [V] | 1.24 | 49 | 94 |  |
| Nc1nc(NCCNc2ncc(NC(=O)NCCN3CCOCC3)c(-c3ccc(Cl)cc3Cl)n2)ccc1[N+](=O)[O-] [D] | 3 | 60 | 96 |  |
| Nc1nc(NCCNc2ncc(CO)c(-c3ccc(Cl)cc3Cl)n2)ccc1[N+](=O)[O-] [K] | 0.147 | 73 | 86 |  |
| IGF1: IGF1, used as a control in the rat hippocampi cell survival test |  | 51 | 93 |  |
| O=[N+]([O-])c1ccc(NCCNc2ccc(-c3ncc[nH]3)c(-c3ccc(Cl)cc3Cl)n2)nc1 [H] | 0.121 | 67 | 94 |  |
| CNCC(=O)Nc1cnc(NCCNc2ccc([N+](=O)[O-])c(N)n2)nc1-c1ccc(Cl)cc1Cl [P] | 0.701 | 55 | 91 |  |
| Nc1nc(NCCNc2ncc(-n3cc(Cl)ccc3=O)c(-c3ccc(Cl)cc3Cl)n2)ccc1[N+](=O)[O-] [O] | 0.133 | 61 | 94 |  |
| Nc1nc(NCCNc2ncc(-c3ncc[nH]3)c(-c3ccc(F)cc3Br)n2)ccc1[N+](=O)[O-] [Compound S] | 0.22 | 50 | 95 |  |
| Nc1nc(NCCNc2ncc(-c3ncc[nH]3)c(-c3ccc(Cl)cc3Cl)n2)ccc1[N+](=O)[O-] [L] | 0.257 | 59 | 90 |  |
| N#Cc1ccc(NCCNc2ncc(-c3ccncc3)c(-c3ccc(Cl)cc3Cl)n2)nc1 [I] | 0.184 | 56 | 94 | CL [1]: 114 [ml/min]/kg; Brain (at end of study) drug level [1]: <LOQ; AUC [1]: 0.145 µg·h/mL; Cmax [1]: 1.2 µg/mL; Tmax [1]: ~0 h; half-life [1]: 42 min; Vd [1]: 6.8 L/kg; concentration at 0 min [1]: < 0.02 µg/mL; concentration at 7 min [1]: 1.19 µg/mL; concentration at 20 min [1]: 1.16 µg/mL; concentration at 40 min [1]: 0.614 µg/mL; concentration at 70 min [1]: 0.44 µg/mL; concentration at 100 min [1]: 0.358 µg/mL; concentration at 150 min [1]: 0.106 µg/mL |
| Nc1nc(NCCNc2ncc(N3CCOCC3)c(-c3ccc(Cl)cc3Cl)n2)ccc1[N+](=O)[O-] [U] | 0.0735 | 62 | 93 |  |
| COCCNC(=O)Cn1c(=O)n(C2CCN(C(=O)N3CCc4ccccc4C3)CC2)c2ccccc21 [E] |  | 73 | 88 |  |
| Nc1nc(NCCNc2ncc(-n3ccnc3)c(-c3ccc(Cl)cc3Cl)n2)ccc1[N+](=O)[O-] [Y] | 0.075 | 61 | 94 |  |
| O=[N+]([O-])c1ccc(NCCNc2ncc(-c3ncc[nH]3)c(-c3ccc(Cl)cc3Cl)n2)nc1 [J] | 0.375 | 57 | 95 |  |
| Nc1nc(NCCNc2ncc(N3C(=O)CCC3=O)c(-c3ccc(Cl)cc3Cl)n2)ccc1[N+](=O)[O-] [M] | 0.085 | 61 | 87 |  |
| Nc1nc(NCCNc2ncc(-c3ncc[nH]3)c(-c3ccc(F)cc3Cl)n2)ccc1[N+](=O)[O-] [X] | 0.424 | 50 | 93 |  |
| FC(F)(F)c1ccc(NCCNc2ccc(-c3ncc[nH]3)c(-c3ccc(Cl)cc3Cl)n2)nc1 [F] |  | 51 | 96 |  |
| N#Cc1ccc(-c2nc(NCCNc3ccc([N+](=O)[O-])cn3)ncc2-n2ccnc2)cc1 [T] | 1.28 | 50 | 95 |  |
| Cc1ccc(-c2nc(NCCNc3ccc([N+](=O)[O-])c(N)n3)ncc2-c2ncc[nH]2)c(Br)c1 [G] | 0.053 | 65 | 94 | CL [1]: 52 [ml/min]/kg; Brain (at end of study) drug level [1]: <LOQ; AUC [1]: 3.18 µg·h/mL; Cmax [1]: 4.6 µg/mL; Tmax [1]: ~0 h; half-life [1]: 31 min; Vd [1]: 2.3 L/kg; concentration at 0 min [1]: < 0.02 µg/mL; concentration at 7 min [1]: 4.05 µg/mL; concentration at 20 min [1]: 3.2 µg/mL; concentration at 40 min [1]: 1.33 µg/mL; concentration at 70 min [1]: 0.796 µg/mL; concentration at 100 min [1]: 0.414 µg/mL; concentration at 150 min [1]: 0.113 µg/mL |
| CN(CCNc1ccc([N+](=O)[O-])c(N)n1)c1ncc(-c2ncc[nH]2)c(-c2ccc(Cl)cc2Cl)n1 [Q] | 0.017 | 67 | 95 |  |
| Nc1nc(NCCNc2ncc(-n3cccn3)c(-c3ccc(Cl)cc3Cl)n2)ccc1[N+](=O)[O-] [W] | 0.0998 | 61 | 94 |  |
| CN1CCN(c2cnc(NCCNc3ccc([N+](=O)[O-])c(N)n3)nc2-c2ccc(Cl)cc2Cl)CC1 [N] | 0.0534 | 67 | 91 |  |
